Laboratory results published in patent US12533350B2, “Use of melanocortin-1 receptor agonist” (TANABE PHARMA CORPORATION, priority 2022, dated 2026).

Experiments:
[1] = tested on: lung tissue gene expression in BLM-induced SSc model; details: 0.3 mg/kg
Experimental: Total RNA of mouse lung tissue samples of PBSY_vehicle (control group without disease), BLM_vehicle (control group with disease), and BLM_Compound A (0.3 mg/kg) obtained from the BLM-induced SSc model (prophylactic evaluation) was used for analysis. The purity, concentration, and quality of the RNA samples were confirmed with NanoDrop 2000 (Thermo Fisher Scientific) and Agilent 2100 bioanalyser (Agilent Technologies). The RNA was then Cy3-labeled using a Low Input Quick Amp Labeling Kit, one-color (Agilent Technologies). Labeled cRNA samples were fragmented, and then hybridized with the Agilent SurePrint G3 Mouse GE v2 8×60 K Microarray (Agilent Technologies) using a Gene Expression Hybridization Kit (Agilent Technologies). After hybridization, the microarray was washed with the Gene Expression Wash Buffers Pack (Agilent Technologies) and imaged with a scanner to detect the signals. Signal intensities were evaluated with Agilent Feature Extraction software 12.0.
Bioinformatics analysis in this study was performed with software, including GeneSpring GX 14.9.1, IPA 2019 autumn, and Microsoft Excel 2010. Genes that fluctuated ≥2 fold in BLM_vehicle group in comparison with those of the PBS_vehicle group and that satisfied a p-value <0.05 of the moderated t-test were defined as “differentially expressed genes (DEGs) in the disease model”. Among DEGs, the genes in the Compound A treatment group that fluctuated ≥1.5 fold in the opposite direction and met a p-value <0.05 of the moderated t-test in comparison with those of the BLM_vehicle group were defined as “DEGs by Compound A treatment”. DEGs were inputted into IPA and two types of calculations were performed: “Canonical pathways” and “Diseases or functions”. Here, “Canonical pathways” is described as “pathways” and “Diseases or functions” is described as “category”. The former contains a list for a series of gene interactions and the latter is a list related to diseases and biological functions. These datasets are registered in the IPA software. Initially, the Fisher's exact test was used to calculate the probability of overlap between two sets of genes. Thereafter, downstream effect analysis (DSEA) was used to calculate the activation z-score. DSEA is a technique for predicting the direction of change in expression patterns (either activation or inhibition) based on the expected causal effects between genes and functions. Based on the results of the DSEA analysis, information about the cell type (macrophages, neutrophils, mononuclear leukocytes, T-lymphocytes, B-lymphocytes, smooth muscle cells, endothelial cells, epithelial cells, and fibroblasts) that may be involved in the pathogenesis of SSc was extracted. Subsequently, information regarding biological functions and molecular signaling pathways, such as inflammation/immune abnormality, vascular dysfunction, and fibrosis, involved in the pathogenesis of SSc are extracted.
DNA microarray analysis was carried out using lung samples from a BLM-induced SSc model (prevention model) to which 0.3 mg/kg of Compound A was administered. Bioinformatics analysis was carried out using IPA software, and two datasets were used to perform two types of calculations (“Canonical pathways” and “Diseases or functions”). Downstream effect analysis was used to calculate the activation z-score.

[2] = tested on: pre-established BLM-induced skin fibrosis
[3] = Compound A at 3 and 10 mg/kg orally once daily day 22-42, samples day 43

In the case of `COC[C@H]1CN(C(=O)[C@]2(F)CN(C3CCCC3)C[C@H]2c2ccc(OC)cc2)C[C@@H]1c1ccc(C(F)(F)F)cc1N1CCC(C(=O)O)CC1` [Compound A, 1-{2-[(3S,4R)-1-{[(3R,4R)-1-cyclopentyl-3-fluoro-4-(4-methoxyphenyl)pyrrolidin-3-yl]carbonyl}-4-(methoxymethyl)pyrrolidin-3-yl]-5-(trifluoromethyl)phenyl}piperidine-4-carboxylic acid], the “gene expression fluctuation induced by BLM in IL-6 pathway genes (upstream and downstream)” value [1] is reported as “reversed”, the IL-6 signaling pathway ([1]; IPA canonical pathways) is reported as “affected” and the PPAR signaling pathway ([1]; IPA canonical pathways) is reported as “affected”. For the same compound, the TREM1 signaling pathway ([1]; IPA canonical pathways) was “affected”, the “oncostatin M signaling pathway” value ([1]; IPA canonical pathways) was “affected” and the “category activation of antigen-presenting cells (activated by BLM)” value ([1]; IPA downstream effect analysis) was “suppressed”. The “category angiogenesis (activated by BLM)” value ([1]; IPA downstream effect analysis) was “suppressed”, the “category atherosclerosis (activated by BLM)” value ([1]; IPA downstream effect analysis) was “suppressed” and the “category inflammatory response (activated by BLM)” value ([1]; IPA downstream effect analysis) was “suppressed”. For the same compound, the “category vasculogenesis (activated by BLM)” value ([1]; IPA downstream effect analysis) was “suppressed”, the “category vaso-occlusion (activated by BLM)” value ([1]; IPA downstream effect analysis) was “suppressed” and the “number of DEGs by Compound A treatment (≥1.5 fold in opposite direction, p<0.05 vs BLM_vehicle)” value ([1]; among 3337 DEGs in the disease model) was 1477. For the same compound, the “T-lymphocyte-related categories (IPA activation z-score)” value ([1]; not changed by BLM) was “suppressed”, the “endothelial cell-related categories (IPA activation z-score)” value ([1]; not changed by BLM) was “suppressed” and the “expression of the IL-6 gene among component genes of the IL-6 signaling pathway” value ([1]; remarkably upregulated by BLM) was “downregulated the most”. For the same compound, the “BLM-induced increase of skin thickness” value [2, 3] was “significantly inhibited”, the “BLM-induced increase of αSMA-positive myofibroblasts in the dermis” value [2, 3] was “significantly inhibited” and the “BLM-induced loss of dermal white adipose tissue (Masson's trichrome staining)” value ([2]; Compound A orally once daily day 22-42, samples day 43) was “inhibited”. The “progression of fibrosis after 3 weeks (versus group 2: BLM 3 weeks then saline 3 weeks)” value ([2]; Compound A orally once daily during last 3 weeks of 6-week BLM) was “almost completely inhibited”.
